# Measurements reported in ChEMBL document CHEMBL5126638, “Resin Glycosides from Operculina hamiltonii and Their Synergism with Vinblastine in Cancer Cells” (J Nat Prod, 2022).
# The source made the active and inactive calls. The rule behind the calls is not given here.
# Assays:
# Type in all cases: functional, cell-based
# HCT-116 [1] = assay: Cytotoxicity in human HCT-116 cells assessed as growth inhibition level after 48 hrs by SRB assay; details: HCT-116, 48 h
# HeLa [2] = assay: Cytotoxicity in human HeLa cells assessed as growth inhibition level after 48 hrs by SRB assay
# MCF7-VP [3] = assay: Cytotoxicity in human MCF7/Vin cells assessed as growth inhibition level after 48 hrs by SRB assay
# MCF7 [4] = assay: Cytotoxicity in human MCF7 cells assessed as growth inhibition level after 48 hrs by SRB assay; details: MCF7, 48 h
# HeLa [5] = assay: Enhancement of 0.003 uM vinblastine-induced cytotoxicity in human HeLa cells assessed as growth inhibition level after 48 hrs by SRB assay
# HCT-116 [6] = assay: Enhancement of 0.003 uM vinblastine-induced cytotoxicity in human HCT-116 cells assessed as growth inhibition level after 48 hrs by SRB assay; details: HCT-116, 48 h
# MCF7-VP [7] = assay: Enhancement of 0.003 uM vinblastine-induced cytotoxicity in human MCF7/Vin cells assessed as growth inhibition level after 48 hrs by SRB assay
# MCF7 [8] = assay: Enhancement of 0.4 uM vinblastine-induced cytotoxicity in human MCF7 cells assessed as growth inhibition level at 25 uM after 48 hrs by Microscopic visualization based assay
# MCF7 [9] = assay: Enhancement of 0.003 uM vinblastine-induced cytotoxicity in human MCF7 cells assessed as growth inhibition level after 48 hrs by SRB assay; details: MCF7, 48 h
Compound,IC50 (HCT-116 [1]) [µM],IC50 (HeLa [2]) [µM],IC50 (MCF7-VP [3]) [µM],IC50 (MCF7 [4]) [µM],IC50 (HeLa [5]) [µM],IC50 (HCT-116 [6]) [µM],IC50 (MCF7-VP [7]) [µM],Activity (MCF7 [8]),IC50 (MCF7 [9]) [µM]
COc1cc2c(c(OC)c1OC)-c1ccc(OC)c(=O)cc1[C@@H](NC(C)=O)CC2 [COLCHICINE],0.08,0.006,1.57,–,–,–,–,–,–
CC[C@]1(O)C[C@@H]2CN(CCc3c([nH]c4ccccc34)[C@@](C(=O)OC)(c3cc4c(cc3OC)N(C)[C@H]3[C@@](O)(C(=O)OC)[C@H](OC(C)=O)[C@]5(CC)C=CCN6CC[C@]43[C@@H]65)C2)C1 [VINBLASTINE],0.3,0.004,1.63,0.035,–,–,–,–,–
CCCCCCCCCCCC(=O)O[C@H]1[C@H](O[C@@H]2[C@H]3OC(=O)CCCCCCCCC[C@H](CCCCC)O[C@@H]4O[C@H](C)[C@H](O)[C@H](O)[C@H]4O[C@H](O[C@H]2C)[C@@H]3O)O[C@@H](C)[C@H](O[C@@H]2O[C@@H](C)[C@H](O)[C@@H](O)[C@H]2O)[C@H]1O[C@@H]1O[C@H](CO)[C@@H](O)[C@H](O)[C@H]1O,> 25,> 25,> 25,> 25,26.6,17.7,18.4,Active,15.2
CCCCCCCCCC(=O)O[C@H]1[C@H](O[C@@H]2[C@@H](O)[C@@H](O)[C@H](O[C@H]3[C@H](O[C@@H](CCCCC)CCCCCCCCCC(=O)OC)O[C@H](C)[C@H](O)[C@@H]3O)O[C@H]2C)O[C@@H](C)[C@H](O[C@@H]2O[C@@H](C)[C@H](O)[C@@H](O)[C@H]2O)[C@H]1O[C@@H]1O[C@H](CO)[C@@H](O)[C@H](O)[C@H]1O,> 25,> 25,> 25,> 25,26.1,8.6,10,Active,4.7
CCCCCCCCCCCC(=O)O[C@H]1[C@H](O[C@@H]2[C@@H](O)[C@@H](O)[C@H](O[C@H]3[C@H](O[C@@H](CCCCC)CCCCCCCCCC(=O)OC)O[C@H](C)[C@H](O)[C@@H]3O)O[C@H]2C)O[C@@H](C)[C@H](O[C@@H]2O[C@@H](C)[C@H](O)[C@@H](O)[C@H]2O)[C@H]1O[C@@H]1O[C@H](CO)[C@@H](O)[C@H](O)[C@H]1O,> 25,> 25,> 25,> 25,14.6,6.8,3.1,Active,4.4
CCCCCCCCCC(=O)O[C@H]1[C@H](O[C@@H]2[C@H]3OC(=O)CCCCCCCCC[C@H](CCCCC)O[C@@H]4O[C@H](C)[C@H](O)[C@H](O)[C@H]4O[C@H](O[C@H]2C)[C@@H]3O)O[C@@H](C)[C@H](O[C@@H]2O[C@@H](C)[C@H](O)[C@@H](O)[C@H]2O)[C@H]1O[C@@H]1O[C@H](CO)[C@@H](O)[C@H](O)[C@H]1O,> 25,> 25,> 25,> 25,23.8,12.8,19.4,Active,12.3
